Usually Kp stands for the ratio of the level in a tissue or fluid to that in plasma or blood. The % Inhibition is the percentage by which the read-out fell short of the control.

Data set [1] is described as follows: IV/PO pharmacokinetics, NHP. Format: in vivo. The settings on record: NHP (cyno); for clearance / Vd / half-life: cynomolgus monkey, plasma, 1 mg/kg; for clearance: read-out: CLp; for Vd: read-out: Vss; for half-life: read-out: elimination t1/2 (converted). The source says:
(§1) We next conducted multispecies IV/PO PK in parallel as a potential discerning data set.

Data set [2] can be described thus: IV/PO pharmacokinetics, dog. Format: in vivo, dog (beagle or mongrel). The settings on record: for clearance / Vd / half-life: plasma, 1 mg/kg; for clearance: read-out: CLp; for Vd: read-out: Vss; for half-life: read-out: elimination t1/2 (converted).
Description: as §1

A short description of data set [3]: IV/PO pharmacokinetics, rat. Format: in vivo. The settings on record: rat (SD), dose iv/po 1/10 mg/kg; for clearance / Vd / half-life: Sprague-Dawley, plasma, 1 mg/kg; for clearance: read-out: CLp; for Vd: read-out: Vss; for half-life: read-out: elimination t1/2 (converted). On the procedure:
We next conducted multispecies IV/PO PK in parallel as a potential discerning data set. […] With a strong desire to employ dog as the nonrodent safety species, the challenge to address the low %F in dog was enough to triage PAM 12 and focus on the advancement of 11 (Table 3). […]
Pharmacokinetic profiles in rats following oral single escalating doses Single escalating oral dosing in Sprague-Dawley rats was performed at Frontage Laboratories according to their non-GLP Standard Operating Procedure and IACUC protocols. In short, compounds were formulated in 10% Tween 80 in water and dosed at 10 mg/kg. At different times, arterial blood was collected from a femoral artery catheter, and compound concentration was determined in plasma by LC-MS/MS following their non-GLP protocol. PK parameters were determined using Phoenix WinNonlin software (version 6.3). […]

A short description of data set [4]: Rat plasma and brain exposure, 100 mg/kg i.p., 3 h. The data set is classed as in vivo. The settings on record: ip; for Kp at 3 h: brain and plasma, 100 mg/kg i.p.; for concentration at 3 h: 100 mg/kg i.p. in 30% captisol. The source says: Due to the prevalence of metabolite A (VU6036463, 24) in both in vitro preparations and in vivo, we first synthesized and characterized 24. Utilizing intermediate 19 (Scheme 3), a Suzuki coupling with benzyl chloride 28 afforded a mixture of N-Boc protected analog 29 and N-H analog 29a in moderate isolated yield. Hydrolysis of the nitriles to the carboxylic acid, followed by a HATU-mediated coupling with tetrahydro-2H-pyran-4-amine delivered 24 in 81% yield over the two steps.[21] In our kinetic assays, 24 was an “active” metabolite, with the profile of an M1 ago-PAM. […] To ascertain if 24 could be the source of the adverse cholinergic events in rats, we dosed 11 and 24, in parallel, at a dose of 100 mg/kg i.p. in 30% captisol and prepared plasma and brain samples at a 3-h time point to determine brain exposure of the M1 ago-PAM 24. In this study, 11 achieved a total plasma concentration of 3.6 μM and a total brain concentration of 0.93 μM (Kp = 0.26).

The test system of data set [5] is CYP3A4, CYP1A2, CYP2C9 and CYP2D6. The experiment in a line: CYP450 profile (summary over four isoforms). Format: in vitro ADME. The following applies: human; summary over the four isoforms; read-out: CYP450 IC50s against CYP3A4, CYP1A2, CYP2C9 and CYP2D6.
Data set [6] in a line: Predicted hepatic clearance, dog. The data set is classed as in vitro ADME. The method, then:
The diluted fraction unbound (fu2) in brain was calculated in the same manner by using brain homogenate rather than plasma. Undiluted fraction unbound for the brain was calculated using […]
Equation 5 Determination of fraction unbound in brain. Fu2 represents the diluted fraction […]
Intrinsic clearance: Human or rat hepatic microsomes (0.5 mg/mL) and 1 µM test compound were incubated in 100 mM potassium phosphate pH 7.4 buffer with 3 mM MgCl2 at 37 °C with constant shaking. After a 5 min preincubation, the reaction was initiated by the addition of NADPH (1 mM). At selected time intervals (0, 3, 7, 15, 25, and 45 min), aliquots were taken and subsequently placed into a 96-well plate containing cold acetonitrile with internal standard (50 ng/mL carbamazepine). Plates were then centrifuged at 3000 rcf (4 °C) for 10 min, and the supernatant was transferred to a separate 96-well plate and diluted 1:1 with water for LC/MS/MS analysis. The in vitro half-life ( 1/2, min, Eq. 1), intrinsic clearance (CLint, mL/min/kg, Eq. 2), and subsequent predicted hepatic clearance (CLhep, mL/min/kg, Eq. 3) was determined employing the […]
Samples were analyzed on a Thermo Electron TSQ Quantum Ultra triple quad mass spectrometer (San Jose, CA) via electrospray ionization (ESI) with two Themo Electron Accella pumps (San Jose, CA), and a Leap Technologies CTC PAL autosampler (Carrboro, NC). […]

A short description of data set [7]: GSH trapping study in human liver microsomes. Format: in vitro ADME. Background: Liver microsomes are a subcellular fraction often used to study metabolism.
The next data set relates to 4-strain Ames. The experiment in a line: 4-strain Ames assay. The settings on record: with and without S9.
The next data set has as its system Melatonin MT1. The experiment in a line: Eurofins radioligand binding. The arrangement: species or system Human. The following applies: specific binding.
Setting [8] is: brain, read-out: total brain concentration.
[9] abbreviates: plasma, read-out: total plasma concentration.

Like-named read-outs stand apart in the source and are kept apart here.

With `Cn1ccc(-c2ccc(Cc3cc(C(=O)NC4CCOCC4)nc4ccn(C)c34)cc2)n1` [compound 11], in data set [1] (dose iv/po 1/5 mg/kg), the “F (%) po” value is reported as 59%, the clearance was found to be 5.9 mL/min/kg, the Vd is 0.39 L/kg and the half-life was 1 h. In addition, in data set [2] (dose iv/po 1/5 mg/kg), the “F (%) po” value is 35%, the clearance stood at 2.4 mL/min/kg, the Vd stood at 2.2 L/kg and the half-life was 12.8 h. Moreover, in [3], the clearance turned out to be 26 mL/min/kg, the Vd is 3.2 L/kg, the half-life is 6.1 h and the “F (%) po” value is given as 66%. The Kp at 3 h in data set [4] was 0.26. For the same compound, the concentration at 3 h in data set [4] (setting [8]) was determined as 930 nM. Also, in data set [4] (setting [9]), the concentration at 3 h amounted to 3600 nM. Besides, the IC50 in [5] is above 16 µM. The “Predicted CLhep, dog” value in [6] was 14 mL/min/kg. Besides, the “GSH trapping, reactive intermediates” value in data set [7] is recorded as “negative”. In addition, the Ames result in the data set on 4-strain Ames is reported as “negative”. Further, the “% Inhibition at 10 µM” value with Melatonin MT1 is given as 7%.

In the case of `Cn1ccc(-c2ccc(Cc3cc(C(=O)NC4CCOCC4)nc4ccsc34)cc2)n1` [compound 12], in data set [1] (dose iv/po 1/3 mg/kg), the “F (%) po” value is 79%, the clearance was 2.3 mL/min/kg, the Vd was found to be 0.7 L/kg and the half-life is 4.5 h. Besides, in data set [2] (dose iv/po 1/3 mg/kg), the “F (%) po” value was determined as 9%, the clearance is 1.3 mL/min/kg, the Vd was 4 L/kg and the half-life is 36.6 h. In [3], the clearance is 33 mL/min/kg, the Vd was 8.2 L/kg, the half-life is 5.3 h and the “F (%) po” value is listed as 100%. In addition, in [5], the IC50 is above 16 µM. In addition, the “Predicted CLhep, dog” value in data set [6] is 16 mL/min/kg. Also, the “GSH trapping, reactive intermediates” value in data set [7] is reported as “negative”. Besides, the Ames result with 4-strain Ames is reported as “negative”. Besides, the “% Inhibition at 10 µM” value with Melatonin MT1 was determined as 70%.

In data set [4], `Cn1ccc2nc(C(=O)NC3CCOCC3)cc(Cc3ccc(-c4cc[nH]n4)cc3)c21` [compound 24] yielded a Kp at 3 h of 0.07. The figures for the concentration at 3 h in data set [4] (setting [8]) and in data set [4] (setting [9]) were 80 nM and 1200 nM, respectively.

The values are drawn from publication PMC11413853, “Discovery of VU6007496: Challenges in the Development of an M1 Positive Allosteric Modulator Backup Candidate” (ACS Chemical Neuroscience, 2024).
